Patent US20230390272A1 (PRILENIA NEUROTHERAPEUTICS LTD., priority 2020, published 2023)
Several values for one entry are separate records, joined by “and”; a condition that tells them apart may be missing. Equal entries are not always repeated. Where two headings read alike, the source gives them in different places.

Tests used:
B104 neuroblastoma cells = assay: BDNF release from B104 cells, in-situ ELISA; type: cell-based, rat; conditions: 5 days, vs untreated control
Sigma-1 Receptor (S1R) = Sigma-1 Receptor (S1R) (Homo sapiens (Human), UniProt Q99720); assay: In-vitro binding assay, Sigma-1 receptor; conditions: for S1R fold selectivity (S2R/S1R): ratio S2R Ki/S1R Ki
Protocol: (§1) In-vitro binding assays performed at Eurofins Panlabs Taiwan, Ltd. Specific ligand binding was determined in the presence of an excess of unlabelled ligand.

[1] = test system: rodents exhibiting symptoms of anxiety; conditions: periodic administration, paper example
D2Rs = D2Rs (Homo sapiens (Human), UniProt P14416); conditions: cited from earlier work
Male NMRI mice = conditions: 30 min before test
Excerpt: Animals were assigned according to the experimental plan to one of the 4 test boxes run simultaneously.
The number of marbles covered by sawdust were counted. The experimenter also observed the animals for obvious inhibition of general activity (locomotor activity).

Sprague-Dawley male rats = conditions: FST day 8
Excerpt: On day 8, rats were again placed in a water tank, and time spent immobile measured.
Sprague-Dawley male rats, 6 weeks old were used. Rats were pre-tested on day 1 to ensure stable and high duration of immobility during the 5-min test session.

D3Rs = D3Rs (Homo sapiens (Human), UniProt P35462); conditions: cited from earlier work
HD patients = conditions: 45 mg bid
Excerpt: PBA-S includes behavioral assessments of depressed mood, anxiety, apathy and irritability.
The lack of initiative subscale of the PBA-S is a measure of apathy in HD patients. Apathy is a symptom common to HD and depression.
The Problem Behaviors Assessment-Short (PBA-s) scale, is a measure of psychiatric symptoms including anxiety, depression and apathy. The PBA-s is an interview designed specifically for rating the severity and frequency of behavioral abnormalities in HD. PBA-S includes behavioral assessments of depressed mood, anxiety, apathy and irritability. This scale is widely used in HD clinical trials and recommended as a measure of screening behavioral symptoms, including depression and anxiety. […] The lack of initiative subscale of the PBA-S is a measure of apathy in HD patients. Apathy is a symptom common to HD and depression.

Sigma-2 receptor (S2R) = Sigma-2 receptor (S2R) (Homo sapiens (Human), UniProt Q5BJF2); assay: In-vitro binding assay, Sigma-2 receptor; conditions: Cheng Prusoff equation
Protocol: as §1

YAC128 HD mice [2] = conditions: early treatment from 1.5 months, 30 mg/kg
Protocol: (§2) Animals. […] Mice were bred at the Biological Resource Centre (Agency for Science, Technology and Research, ASTAR), and group-housed with littermates of mixed genotype. Animals were maintained under a 12-h light cycle (lights on at 09:00) in a clean facility, and given free access to food and water. Experiments were performed with the approval of the Institutional Animal Care and Use Committee at the Biomedical Sciences Institute (ASTAR) and in accordance with their approved guidelines.
(§3) Animals were weighed every two weeks to ensure the correct dose was maintained.
(§4) Mice were divided into three groups. […] One cohort was behaviorally tested every two months commencing at 2 months of age. Mice were tested for psychiatric function (open field, elevated plus maze, and forced swim test). Tests were conducted at a set time during the day, prior to drug administration.
Anxiety-like behavioral tests. The open-field (OF) and elevated plus maze (EPM) tests are used to assess anxiety-like behavioral in rodents. The time spent in the center of the arena in the OF and the time spent in the open arms of the maze in the EPM are considered measures of anxiety-like behavior.

Male Sprague-Dawley rats = conditions: 30 mg/kg p.o., 30 min and 120 min after administration
Protocol: Male Sprague-Dawley rats (270-400 g bodyweight) were housed in groups of two in a temperature (20±2° C.) and humidity (50-60%) controlled colony room under a non-reversed 12 (6-18 on)/12 h light-dark cycle with food and water ad libitum except during the actual experiments. 4 rats were used for each drug dose and the vehicle-treated control group.
USV was recorded by a microphone and processed by an interface to select USV signals and to digitize the resulting signals for automatic processing. In the priming phase, each rat was placed in the test chamber. After a 2 min time period, a series of at most ten shocks (trials), 1.8 mA for 0.3 s, separated by 20 s shock-free intervals, was delivered via the grid floor of the test chamber. In the shock-free intervals the occurrence of ultrasonic vocalization (22±5 kHz) was automatically recorded, and the duration of ultrasonic vocalization was calculated immediately. The priming session was terminated either when the rat constantly vocalized at least for 10 s on three consecutive trials or after the tenth trial. Rats not responding with USV on three consecutive trials were excluded from the test. In the actual test performed on the next day, each rat received 5 initial shocks (1.8 mA for 0.3 s, separated by 20 s shock-free intervals) in the test chamber, and the duration of USV (22+4 kHz) was recorded during the following 3 min period.

[3] = test system: patient diagnosed with anxiety or depression; conditions: periodic administration, intravenous or oral, paper example
YAC128 HD mice [4] = test system: YAC128 HD mice
Protocol: as §2, §3, §4

Chain of Sigma-1 Receptor (S1R) (Q99720 whole entry, species assumed): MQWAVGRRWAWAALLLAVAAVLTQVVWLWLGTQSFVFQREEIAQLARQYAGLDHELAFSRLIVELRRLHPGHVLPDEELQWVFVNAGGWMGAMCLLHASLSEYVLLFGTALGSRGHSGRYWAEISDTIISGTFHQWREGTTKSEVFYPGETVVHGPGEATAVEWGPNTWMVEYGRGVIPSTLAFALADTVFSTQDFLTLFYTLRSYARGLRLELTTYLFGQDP
Chain of D2Rs (P14416 whole entry): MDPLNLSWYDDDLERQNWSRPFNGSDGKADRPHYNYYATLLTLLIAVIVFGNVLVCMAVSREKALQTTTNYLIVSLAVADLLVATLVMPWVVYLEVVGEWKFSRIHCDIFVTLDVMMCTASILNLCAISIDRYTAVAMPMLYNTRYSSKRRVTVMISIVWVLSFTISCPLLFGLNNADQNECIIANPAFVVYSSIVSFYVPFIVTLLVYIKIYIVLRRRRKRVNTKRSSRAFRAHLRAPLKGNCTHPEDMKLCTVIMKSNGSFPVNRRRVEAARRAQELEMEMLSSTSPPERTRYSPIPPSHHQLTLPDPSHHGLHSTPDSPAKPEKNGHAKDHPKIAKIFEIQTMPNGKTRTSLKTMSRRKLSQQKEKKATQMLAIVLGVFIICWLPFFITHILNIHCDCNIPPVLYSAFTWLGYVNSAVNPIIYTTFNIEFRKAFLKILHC
Chain of D3Rs (P35462 whole entry): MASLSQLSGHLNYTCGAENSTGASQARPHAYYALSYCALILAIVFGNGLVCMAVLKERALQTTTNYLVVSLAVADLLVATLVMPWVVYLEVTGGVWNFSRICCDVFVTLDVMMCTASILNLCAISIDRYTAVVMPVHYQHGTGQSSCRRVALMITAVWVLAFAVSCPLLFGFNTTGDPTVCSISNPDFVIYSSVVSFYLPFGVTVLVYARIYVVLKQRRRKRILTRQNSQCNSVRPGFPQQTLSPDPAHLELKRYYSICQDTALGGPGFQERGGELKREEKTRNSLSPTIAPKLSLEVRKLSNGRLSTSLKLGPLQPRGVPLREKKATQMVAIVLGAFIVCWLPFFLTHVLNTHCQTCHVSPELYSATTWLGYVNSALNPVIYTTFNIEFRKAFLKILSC
Chain of Sigma-2 receptor (S2R) (Q5BJF2 whole entry, species assumed): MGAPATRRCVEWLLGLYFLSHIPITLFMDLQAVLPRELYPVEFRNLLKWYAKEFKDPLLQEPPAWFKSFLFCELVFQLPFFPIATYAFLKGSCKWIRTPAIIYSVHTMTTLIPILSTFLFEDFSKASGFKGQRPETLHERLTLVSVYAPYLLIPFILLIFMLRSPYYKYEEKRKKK

**Q.** For `CCCN1CCC(O)(c2cccc(S(C)(=O)=O)c2)CC1` [Compound 1], which “increase in BDNF secretion” value (B104 neuroblastoma cells; Compound 1 1 μM alone) is on record?
**A.** 12.5%

**Q.** And the “S1R fold selectivity (S2R/S1R)” value (Sigma-1 Receptor (S1R))?
**A.** >270 fold

**Q.** Which “change in BDNF secretion” value (B104 neuroblastoma cells; Compound 4 0.001 μM alone) does the source give for `CCCN1CC[C@@H](c2cccc(S(C)(=O)=O)c2)[C@@H](O)C1` [Compound 4] here?
**A.** −1.5%

**Q.** And the “S1R fold selectivity (S2R/S1R)” value (Sigma-1 Receptor (S1R))?
**A.** >35 fold

**Q.** Which “efficacy in treating anxiety” value [1] does the source give for `CCCN1CCC(c2cccc(S(C)(=O)=O)c2)CC1` [Pridopidine, 4-[3-(methylsulfonyl)phenyl]-1-propyl-piperidine] here?
**A.** effective in treating anxiety

**Q.** What about the “higher affinity towards the S1R vs D2Rs” value (D2Rs) of the same compound?
**A.** ~500 fold

**Q.** And the inhibition of marble-burying (Male NMRI mice; 1 mg/kg p.o.)?
**A.** 8%

**Q.** What about the inhibition of marble-burying (Male NMRI mice; 3 mg/kg p.o.) of the same compound?
**A.** 49%

**Q.** What about the inhibition of marble-burying (Male NMRI mice; 10 mg/kg p.o.) of the same compound?
**A.** 62%

**Q.** And the inhibition of marble-burying (Male NMRI mice; 30 mg/kg p.o.)?
**A.** 73%

**Q.** What about the “decrease in immobility time” value (Sprague-Dawley male rats; 3 mg/kg oral gavage daily for 7 days) of the same compound?
**A.** 38%

**Q.** And the “decrease in immobility time” value (Sprague-Dawley male rats; 15 mg/kg oral gavage daily for 7 days)?
**A.** 58%

**Q.** And the “higher affinity towards the S1R vs D3Rs” value (D3Rs)?
**A.** ~30 fold

**Q.** And the “PBA-S change from baseline vs placebo” value (HD patients; week 52, p=0.0603)?
**A.** −2.13 units

**Q.** And the “PBA-S lack of initiative measure, change from baseline vs placebo” value (HD patients; week 52, p=0.0704)?
**A.** −1.27 units

**Q.** And the Ki (Sigma-2 receptor (S2R))?
**A.** 5450 nM

**Q.** And the “time spent in the center of the arena (open field)” value (YAC128 HD mice [2]; tested at 6 months)?
**A.** increased the time spent in the center of the arena

**Q.** And the “time spent in the open arms (elevated plus maze)” value (YAC128 HD mice [2]; tested at 8 months)?
**A.** decreased anxiety-like behavior

**Q.** And the “effect on USV duration” value (Male Sprague-Dawley rats)?
**A.** significantly inhibited USV

**Q.** And the “efficacy in treating patient with anxiety or depression” value [3]?
**A.** effective in treating the patient

**Q.** What about the “increase in BDNF secretion” value (B104 neuroblastoma cells; pridopidine 0.001 μM alone) of the same compound?
**A.** 13.6% and 13.5%

**Q.** And the “increase in BDNF secretion” value (B104 neuroblastoma cells; pridopidine 0.005 μM alone)?
**A.** 26%

**Q.** What about the “increase in BDNF secretion” value (B104 neuroblastoma cells; pridopidine 0.01 μM alone) of the same compound?
**A.** 3.4%

**Q.** And the “time spent immobile in forced swim test” value (YAC128 HD mice [4]; early treatment from 1.5 months, 30 mg/kg, 12 months of age)?
**A.** reduced the time spent immobile

**Q.** What about the “depressive-like behavior, immobility time in forced swim test” value (YAC128 HD mice [4]; late (manifest) treatment from 8 months, escalating to 30 mg/kg oral gavage) of the same compound?
**A.** significantly improves depressive-like phenotype

**Q.** And the Ki (Sigma-1 Receptor (S1R); Cheng Prusoff equation)?
**A.** 57 nM
